Source: PubChem BioAssay AID1959 (Broad Institute, 2009)
Active and inactive are the calls of the source.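 Rule for the calls: active = growth-inhibition EC50 no more than tenfold above the top tested dose; inconclusive = flat fit between 30% and 70% inhibition, or unreliable fit; inactive = EC50 more than tenfold above the top tested dose.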

The compounds below were run on E. coli NEB5alpha growth, BacTiter-Glo luminescence, 4 h (assay: Escherichia coli growth inhibition, dose response, counter-screen for MEX-5/POS-1 RNA-binding inhibitor project, luminescence, NEB5alpha (AID 1959);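 note: pUC19-transformed ampicillin-resistant cells grown in LB with ampicillin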).
`CC1(OC(=O)c2cccs2)C(=O)C=C2C=C(c3ccc(C#N)cc3)OC=C2C1=O` (stereo not drawn) was tested, and the EC50 was > 11 µM (inactive).
For `Cc1nc(S/C(=C/c2ccc(-c3ccc(C(=O)O)cc3)o2)C(=O)O)n[nH]1`, the EC50 was > 11 µM (inactive).
`NC(=O)C[n+]1cccc2ccccc21` was tested, and the EC50 was > 11 µM (inactive).
In the case of `NS(=O)(=O)c1ccc(-c2ccc(/C=C3\SC(=O)NC3=O)o2)cc1`, the EC50 is reported as > 11 µM (inactive).
For `CC(=O)Nc1ccc(NC(=O)C(C)OC(=O)/C(C#N)=C/c2ccc(N(C)C)cc2)cc1` (stereo not drawn), the EC50 was > 11 µM (inactive).
For `CN1C(=O)/C(=C/c2ccc(-c3ccccc3[N+](=O)[O-])o2)SC1=Nc1ccc(Cl)c(C(=O)O)c1`, the EC50 was > 11 µM (inactive).
For `Nc1cc(C(=O)O)c(N)c2c1C(=O)c1ccccc1C2=O`, the EC50 was > 11 µM (inactive).
In the case of `O=C(O)c1ccc(-n2c(-c3cc(-c4ccco4)[nH]n3)n[nH]c2=S)cc1`, the EC50 is reported as > 11 µM (inactive).
`CC(C)c1cc(C(N)=O)c(NC(=O)c2cccc(COc3ccc(Br)cc3)c2)s1` was tested, and the EC50 was > 11 µM (inactive).
With `O=C(CCc1ccc(O)c(O)c1)N/N=C/c1cc2c(cc1[N+](=O)[O-])OCO2` the EC50 was > 11 µM (inactive).
For `CCOC(=O)C1=C(O)/C(=C/c2cn(CC(=O)N3CCCC3)c3ccccc23)SC1=Nc1ccccc1`, the EC50 was > 11 µM (inactive).
With `O=C1OCc2cc(-n3cccc3)ccc21` the EC50 was > 11 µM (inactive).
For `CC(C)CNC(=O)C1Nc2ccccc2C2C=CCC12` (stereo not drawn), the EC50 was > 11 µM (inactive).
For `CCOC(=O)c1cc(C(=O)OCC)cc(-n2c(C)cc(C(=O)CN3CCOCC3)c2C)c1`, the EC50 was > 11 µM (inactive).
In the case of `Oc1[nH]c2ccccc2c1N=Nc1ccccc1`, the EC50 is reported as > 11 µM (inactive).
For `CC1=Nc2ccc(C)cc2/C1=C/c1c(N)n2nc(CC(=O)N3CCOCC3)sc2nc1=O`, the EC50 was > 11 µM (inactive).
In the case of `Cc1cccc(N2C(=O)/C(=C/c3ccc(CN(CCC#N)S(C)(=O)=O)o3)C(=O)NC2=S)c1`, the EC50 is reported as > 11 µM (inactive).
In the case of `Cc1cccc(C)c1NC(=O)NN=C1CCCCC1`, the EC50 is reported as > 11 µM (inactive).
With `Cc1ccc(N/C=C/C(=O)c2sc(-c3ccccc3)nc2C)cc1` the EC50 was > 11 µM (inactive).
`O=C(NNC(=O)c1ccccc1O)c1cccc(Br)c1` was tested, and the EC50 was > 11 µM (inactive).
In the case of `C=CCc1cccc(/C=N/n2cnnc2)c1O`, the EC50 is reported as > 11 µM (inactive).
`COc1ccc(S(=O)(=O)NNC(=O)C(=O)NNc2ccccn2)cc1` was tested, and the EC50 was > 11 µM (inactive).
`O=c1oc2ccc3ccccc3c2cc1-c1nc2ccccc2o1` was tested, and the EC50 was > 11 µM (inactive).
In the case of `CC(=O)Nc1ccc(N/C=C/C(=O)c2ccc(C)o2)cc1`, the EC50 is reported as > 11 µM (inactive).
In the case of `CN1C(=O)C(=Cc2ccc(SC3CCCCC3)o2)C(=O)N(C)C1=O`, the EC50 is reported as > 11 µM (inactive).
In the case of `CCOc1ccccc1-n1c(O)c(C=Nc2ccc(N(CC)CC)cc2)c(=O)[nH]c1=O`, the EC50 is reported as > 11 µM (inactive).
For `CC(C)N1CCc2c(sc(NC(=O)c3ccc(S(=O)(=O)N(C)CC4CCCO4)cc3)c2C(N)=O)C1` (stereo not drawn), the EC50 was > 11 µM (inactive).
In the case of `C=CCOc1cccc(C2C(C(=O)c3ccc(C)o3)=C(O)C(=O)N2c2nccs2)c1` (stereo not drawn), the EC50 is reported as > 11 µM (inactive).
`N#C/C(=C/c1cccn1-c1cccc(C(=O)O)c1)c1ccc(F)cc1` was tested, and the EC50 was > 11 µM (inactive).
In the case of `O=C1/C(=N\S(=O)(=O)c2cccs2)C([n+]2ccc(CCCc3ccccc3)cc2)=C([O-])c2ccccc21`, the EC50 is reported as > 11 µM (inactive).
For `Oc1ccc2ccccc2c1/C=N/Nc1nnc(-c2ncc[nH]2)c2ccccc12`, the EC50 was > 11 µM (inactive).
With `CC(=O)C1=C(c2cccc([N+](=O)[O-])c2)N(C(C)=O)n2c(C)nnc2S1` the EC50 was > 11 µM (inactive).
In the case of `N#Cc1c(N)nc(SCc2ccncc2)c(C#N)c1-c1cccs1`, the EC50 is reported as > 11 µM (inactive).
For `CN1C(=O)NC(c2ccccc2[N+](=O)[O-])C2=C1CCCC2=O` (stereo not drawn), the EC50 was > 11 µM (inactive).
`CCOC(=O)c1ccc(-n2c(CCC(=O)O)ccc2-c2ccccc2)cc1` was tested, and the EC50 was > 11 µM (inactive).
`Cn1cc(/C=C2\C(=O)NC(=O)N(c3ccccc3)C2=O)c2ccccc21` was tested, and the EC50 was > 11 µM (inactive).
`C=CCn1c(=O)/c(=C\c2ccsc2)s/c1=C(/C#N)C(=O)NCCN1CCOCC1` was tested, and the EC50 was > 11 µM (inactive).
In the case of `Cn1cccc1/C=C1\C(=O)NC(=O)N(Cc2ccco2)C1=O`, the EC50 is reported as > 11 µM (inactive).
In the case of `Oc1ccc(/C=N/NC(=S)Nc2cccnc2)c(O)c1O`, the EC50 is reported as > 11 µM (inactive).
For `O=C(O)c1cc(-n2cccc2)ccc1N1CCOCC1`, the EC50 was > 11 µM (inactive).
For `COc1ccc(CCn2c(O)c(/C=N/NC(=O)c3ccncc3)c(=O)[nH]c2=O)cc1OC`, the EC50 was > 11 µM (inactive).
For `CC(=O)Nc1ccc(S(=O)(=O)NNC(=O)C(=O)NNc2ccccn2)cc1`, the EC50 was > 11 µM (inactive).
`CC(C)C1Nc2c(O)cc(Cl)c([N+](=O)[O-])c2C2C=CCC21` (stereo not drawn) was tested, and the EC50 was > 11 µM (inactive).
For `COc1cc2c(cc1OC)-c1c(OC)c(OC)cc3ccnc(c13)C2=O`, the EC50 was > 11 µM (inactive).
For `COc1ccc(C2C(C#N)=C(/N=C/N3CCN(C)CC3)OC3=C2C(=O)CC(C)(C)C3)cc1OC` (stereo not drawn), the EC50 was > 11 µM (inactive).
For `CSc1nnc(N2C(=O)C(O)=C(C(=O)c3ccco3)C2c2ccc(F)cc2)s1` (stereo not drawn), the EC50 was > 11 µM (inactive).
With `Cc1cccc(C(=O)NCCCNC(=O)c2cccc(C)c2)c1` the EC50 was > 11 µM (inactive).
In the case of `COc1cccc(N2C(=O)/C(=C/c3ccc(C)o3)C(=O)NC2=S)c1`, the EC50 is reported as > 11 µM (inactive).
With `COc1ccc(C(=O)/C=C/c2ccc(-c3ccccc3)cc2)cc1CSCC(=O)O` the EC50 was > 11 µM (inactive).
For `CCOc1ccc(N2C(=O)S/C(=C\c3cccn3C)C2=O)cc1`, the EC50 was > 11 µM (inactive).
In the case of `CC1=NN(C(N)=S)C(=O)C1N=Nc1c(Cl)cc([N+](=O)[O-])cc1Cl` (stereo not drawn), the EC50 is reported as > 11 µM (inactive).
`COc1ccc(CCn2c(=N)c(C(=O)NC3CCCCC3)cc3c(=O)n4ccccc4nc32)cc1` was tested, and the EC50 was > 11 µM (inactive).
`CC(C)Sc1nsc2nc(=O)c(/C=C3\C=Nc4ccccc43)c(N)n12` was tested, and the EC50 was > 11 µM (inactive).
`CCN(CC)CCCNC(=O)CCC(=O)NNc1nc2ccccc2c2nc(C)nn12` was tested, and the EC50 was > 11 µM (inactive).
With `C=CCn1c(O)c(/C=C/C=Nc2ccccc2)c(=O)[nH]c1=O` the EC50 was > 11 µM (inactive).
In the case of `O=[N+]([O-])c1ccc(N=Nc2ncc[nH]2)cc1`, the EC50 is reported as > 11 µM (inactive).
With `CC(=NCc1ccc2c(c1)OCO2)c1c(O)n(-c2ccccc2)c(=O)[nH]c1=O` the EC50 was > 11 µM (inactive).
For `O=C(N/N=C/c1c(O)n(Cc2ccco2)c(=O)[nH]c1=O)c1ccccc1O`, the EC50 was > 11 µM (inactive).
In the case of `Cc1cccc(CN2C(=O)N/C(=C/c3ccc(C)s3)C2=O)c1`, the EC50 is reported as > 11 µM (inactive).
`COC(=O)CCC(=O)OC1(C)C(=O)C=C2C=C(C3CC3)N(c3ccc(CO)cc3)C=C2C1=O` (stereo not drawn) was tested, and the EC50 was > 11 µM (inactive).
For `CCn1c(CNC(=O)c2ccc(Cl)cc2)nnc1SCC(=O)N1CCOCC1`, the EC50 was > 11 µM (inactive).
With `Cc1ccccc1NC(=O)CN1C(=O)S/C(=C\c2ccc(-c3cc(C(=O)O)ccc3C)o2)C1=O` the EC50 was > 11 µM (inactive).
In the case of `N#Cc1c(-c2ccccc2Cl)c2c([nH]c1=O)-c1ccccc1OC2`, the EC50 is reported as > 11 µM (inactive).
`CCC(C)n1c(O)c(/C=N/Nc2nc3c(c(=O)n(C)c(=O)n3C)n2C)c(=O)[nH]c1=S` (stereo not drawn) was tested, and the EC50 was > 11 µM (inactive).
In the case of `O=C(O)C(=O)/C(=C\c1ccsc1)c1ccc2ccccc2n1`, the EC50 is reported as > 11 µM (inactive).
With `CC1CCN(C(=O)CCN2C(=O)/C(=C/c3cccs3)SC2=S)CC1` the EC50 was > 11 µM (inactive).
In the case of `CN1CCN(/C=N/C2=C(C#N)C(c3ccccc3)C3=C(CC(C)(C)CC3=O)O2)CC1` (stereo not drawn), the EC50 is reported as > 11 µM (inactive).
With `CNc1ccc2nc3ccccc3[n+](C)c2c1` the EC50 was > 11 µM (inactive).
With `Cc1cc(C(=O)O)ccc1-c1ccc(/C=C2\NC(=O)N(Cc3ccc(F)cc3)C2=O)o1` the EC50 was > 11 µM (inactive).
With `O=C(O)c1ccccc1N/N=C/c1c(Sc2nnnn2-c2ccccc2)nc2ccccn2c1=O` the EC50 was > 11 µM (inactive).
`COc1ccc(N=Cc2c(O)c3ccccc3n2C(C)=O)cc1` was tested, and the EC50 was > 11 µM (inactive).
With `O=C(/C=C/N1CCOCC1)c1ccc(-c2ccccc2)cc1` the EC50 was > 11 µM (inactive).
For `COCC1CCN(C(=O)CC2C(=O)NCCN2Cc2cccc(Oc3ccccc3)c2)CC1` (stereo not drawn), the EC50 was > 11 µM (inactive).
For `Cc1ccc(-c2ccc(CCC(=O)O)n2-c2cccc(C(=O)O)c2)cc1`, the EC50 was > 11 µM (inactive).
With `COC(=O)CNC(=O)C1Nc2ccccc2C2C=CCC12` (stereo not drawn) the EC50 was > 11 µM (inactive).
With `O=C(NN1C(=O)c2ccccc2NC1c1ccccn1)c1ccc(Br)cc1` (stereo not drawn) the EC50 was > 11 µM (inactive).
`CC(=O)/C(N=Nc1nc2c([nH]1)c(=O)n(C)c(=O)n2C)=C(\C)O` was tested, and the EC50 was > 11 µM (inactive).
`Cc1cc(C=O)c(C)n1-c1cc(C(=O)O)cc(C(=O)O)c1` was tested, and the EC50 was > 11 µM (inactive).
With `CCN1C(=O)/C(=C2/C=Cc3ccccc3N2C)OC1=S` the EC50 was > 11 µM (inactive).
For `O=C(N/N=C/c1cccn1-c1cccc(C(=O)O)c1)Nc1ccccc1`, the EC50 was > 11 µM (inactive).
In the case of `Cc1ccc(/C=C2/C(=O)c3ccc(C(=O)O)cc3C2=O)o1`, the EC50 is reported as > 11 µM (inactive).
In the case of `CCOc1cc(/C=C2/C(=O)ON=C2C)ccc1OCc1ccccc1F`, the EC50 is reported as > 11 µM (inactive).
`C[C@@H]1O[C@@H](OC2C(O)C(OCCc3ccc(O)c(O)c3)OC(CO)C2OC(=O)/C=C/c2ccc(O)c(O)c2)[C@H](O)[C@H](O)[C@H]1O` (stereo partly drawn) was tested, and the EC50 was > 11 µM (inactive).
With `Cc1cccn2c(=O)c3cc(C(=O)NC4CCCC4)c(=N)n(CCc4ccccc4)c3nc12` the EC50 was > 11 µM (inactive).
`Cc1ccc(/C=C/C(=O)O)cc1S(=O)(=O)N1CCCCC1` was tested, and the EC50 was > 11 µM (inactive).
With `COc1ccc(N/C(=C(/C(Cl)=C(Cl)Cl)[N+](=O)[O-])n2nnc3ccccc32)cc1` the EC50 was > 11 µM (inactive).
With `CCOC(=O)c1cc(=O)n2nc(-c3ccc(C)cc3)nc2s1` the EC50 was > 11 µM (inactive).
`COc1cc(C(c2c(C)[nH][nH]c2=O)c2c(C)[nH][nH]c2=O)cc([N+](=O)[O-])c1O` was tested, and the EC50 was > 11 µM (inactive).
For `CSc1nnc(N2C(=O)C(O)=C(C(=O)c3ccco3)C2c2cccc(Cl)c2)s1` (stereo not drawn), the EC50 was > 11 µM (inactive).
In the case of `Fc1ccc(NCc2cccnc2)cc1F`, the EC50 is reported as > 11 µM (inactive).
For `COC(=O)c1c(Cl)c2n3ccccc3c(C)c(-c3ccccc3)c-2c1C(=O)OC`, the EC50 was > 11 µM (inactive).
In the case of `Cc1cccn2c(=O)c3cc(C#N)c(=NC(=O)c4cccs4)n(CCCOC(C)C)c3nc12`, the EC50 is reported as > 11 µM (inactive).
`Cc1cccn2c(=O)c3cc(C(=O)NCCN4CCOCC4)c(=N)n(Cc4cccnc4)c3nc12` was tested, and the EC50 was > 11 µM (inactive).
